Assays:
Conditions in all cases: incubation time: 72 h
[1] = test system: BT-549; assay: normalised response (% of control), CellTiter-Glo; higher = more viable cells (100 = DMSO, 0 = benzethonium chloride kill control)
Outline: (§1)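 Breast cancer cell lines were exposed for 72 h in 384-well plates to compound at 5 concentrations, 10-fold apart, covering a 10,000-fold range fixed for each compound. Plates were read for CellTox Green fluorescence and CellTiter-Glo luminescence and normalised to 0.1 % DMSO (100) and a positive kill control (0). Each value is the normalised signal at one concentration of the series.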

[2] = test system: CAL-148; assay: as above
Outline: as §1

[3] = test system: HDQ-P1; assay: as above
Outline: as §1

[4] = test system: SK-BR-3; assay: as above
Outline: as §1

[5] = test system: MDA-MB-468; assay: as above
Outline: as §1

[6] = test system: CAL-51; assay: as above
Outline: as §1

[7] = test system: HCC1937; assay: as above
Outline: as §1

[8] = test system: MCF-10A; assay: as above
Outline: as §1

[9] = test system: Hs578T; assay: as above
Outline: as §1

[10] = test system: MDA-MB-453; assay: as above
Outline: as §1

[11] = test system: BT-474; assay: as above
Outline: as §1

[12] = test system: HCC1599; assay: as above
Outline: as §1

[13] = test system: HCC1143; assay: as above
Outline: as §1

[14] = test system: CAL-120; assay: as above
Outline: as §1

[15] = test system: MDA-MB-231; assay: as above
Outline: as §1

[16] = test system: MDA-MB-436; assay: as above
Outline: as §1

[17] = test system: DU-4475; assay: as above
Outline: as §1

[18] = test system: MFM-223; assay: as above
Outline: as §1

[19] = test system: CAL-85-1; assay: as above
Outline: as §1

[20] = test system: BT-549; assay: normalised viability (% of control), CellTiter-Blue; higher = more viable cells (100 = DMSO, 0 = benzethonium chloride kill control)
Method: (§2)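 DSRT, CellTiter-Blue viability, 72 h incubation. Signal is normalised to DMSO and benzethonium chloride controls. Value is the normalised response at dose 1.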

[21] = test system: CAL-148; assay: as above
Method: as §2

[22] = test system: HDQ-P1; assay: as above
Method: as §2

[23] = test system: SK-BR-3; assay: as above
Method: as §2

[24] = test system: MDA-MB-468; assay: as above
Method: as §2

[25] = test system: CAL-51; assay: as above
Method: as §2

[26] = test system: HCC1937; assay: as above
Method: as §2

[27] = test system: Hs578T; assay: as above
Method: as §2

[28] = test system: MDA-MB-453; assay: as above
Method: as §2

[29] = test system: BT-474; assay: as above
Method: as §2

[30] = test system: HCC1599; assay: as above
Method: as §2

[31] = test system: HCC1143; assay: as above
Method: as §2

[32] = test system: CAL-120; assay: as above
Method: as §2

[33] = test system: MDA-MB-231; assay: as above
Method: as §2

[34] = test system: MDA-MB-436; assay: as above
Method: as §2

[35] = test system: DU-4475; assay: as above
Method: as §2

[36] = test system: MFM-223; assay: as above
Method: as §2

[37] = test system: CAL-85-1; assay: as above
Method: as §2

Compound	normalised response [1]	normalised response [2]	normalised response [3]	normalised response [4]	normalised response [5]	normalised response [6]	normalised response [7]	normalised response [8]	normalised response [9]	normalised response [10]	normalised response [11]	normalised response [12]	normalised response [13]	normalised response [14]	normalised response [15]	normalised response [16]	normalised response [17]	normalised response [18]	normalised response [19]	normalised viability [20]	normalised viability [21]	normalised viability [22]	normalised viability [23]	normalised viability [24]	normalised viability [25]	normalised viability [26]	normalised viability [27]	normalised viability [28]	normalised viability [29]	normalised viability [30]	normalised viability [31]	normalised viability [32]	normalised viability [33]	normalised viability [34]	normalised viability [35]	normalised viability [36]	normalised viability [37]
N.N.[Cl][Pt][Cl] [Cisplatin] (1 nM)	98.7%	90.5%	101%	98.7%	94.9%	74.7%	101%	95.4%	101%	99.3%	101%	102%	90.8%	101%	100%	96.7%	94.2%	99.4%	94.9%	92%	118%	106%	100%	98.2%	113%	90.5%	121%	111%	109%	96.4%	98.2%	85.1%	103%	105%	107%	93.7%	92.1%
CN(C)/N=N/c1[nH]cnc1C(N)=O [Dacarbazine] (1 nM)	101%	100%	96%	99.9%	102%	99.1%	101%	100%	107%	116%	101%	96.7%	104%	94.7%	105%	122%	104%	103%	96.7%	108%	99.7%	105%	106%	103%	87.7%	108%	106%	96.5%	99.6%	81.7%	92.2%	89.3%	94.8%	114%	104%	101%	90.2%
Cc1ccc(-n2nc(C(C)(C)C)cc2NC(=O)Nc2ccc(OCCN3CCOCC3)c3ccccc23)cc1 [Doramapimod] (1 nM)	107%	88.6%	93%	79.2%	95%	83.7%	97.4%	78.8%	95.5%	95%	95.5%	81.5%	98.3%	93.3%	97.9%	93.8%	97.6%	92.4%	91.3%	99.7%	97.8%	64.3%	108%	105%	112%	87%	101%	104%	112%	99.3%	97.3%	89.9%	102%	92.2%	105%	98.8%	100%
C#Cc1cccc(Nc2ncnc3cc(OCCOC)c(OCCOC)cc23)c1 [Erlotinib] (1 nM)	106%	103%	100%	100%	93%	107%	104%	115%	106%	116%	101%	97.1%	101%	96.1%	101%	131%	106%	105%	102%	111%	97.8%	102%	108%	107%	98.2%	102%	84%	99.8%	95%	80.1%	86.6%	85%	107%	99.6%	89%	98.8%	95.3%

From the supplement of paper PMC4862054
